ChEMBL document CHEMBL1156383, “Isolation and biological evaluation of filiformin, plakortide F, and plakortone G from the Caribbean sponge Plakortis sp” (J Nat Prod, 2001)
Converted amounts (≈) assume the structure as drawn. The source made the active and inactive calls. The rule behind the calls is not given here.

How the values were obtained:
THP-1 = experiment: Immunostimulatory activity in human THP1 cells assessed as LPS-induced NF-kappaB activation at =< 50 ug/mL by luciferase reporter gene assay; format: functional, cell-based
Plasmodium berghei [1] = experiment: Antimalarial activity as parasitaemia against Plasmodium berghei ANKA infected Swiss albino mice (Mus musculus) at 100 uM/kg intraperitoneal dose after 3 days; format: functional
Plasmodium falciparum [2] = experiment: Antimalarial activity against Plasmodium falciparum D6; format: functional, organism-based
Toxoplasma gondii = experiment: Antiparasitic activity against Toxoplasma gondii RH infected in mouse L929 cells assessed as [3H]uracil incorporation at 1 uM after 72 hrs by scintillation counting; format: functional
Hepatitis B virus = experiment: Antiviral activity against Hepatitis B virus cell culture assay; format: functional, organism-based
[3] = test system: Mycobacterium tuberculosis; experiment: Antitubercular activity against Mycobacterium tuberculosis at 6.25 ug/mL; format: functional
A549 = experiment: Cytotoxicity against human A549 cells by alamar blue assay; format: functional, cell-based
Plasmodium berghei [4] = experiment: Antimalarial activity against Plasmodium berghei ANKA infected Swiss albino mice (Mus musculus) intraperitoneal dose over 3 days; format: functional, organism-based
Candida albicans = experiment: Antifungal activity against Candida albicans; format: functional, organism-based
SK-MEL-28 = experiment: Cytotoxicity against human SK-MEL-28 cells by alamar blue assay; format: functional, cell-based
P388 = experiment: Cytotoxicity against mouse P388 cells by alamar blue assay; format: functional, cell-based
[5] = test system: Mycobacterium intracellulare; experiment: Antibacterial activity against Mycobacterium intracellular; format: functional, organism-based
HT-29 = experiment: Cytotoxicity against human HT-29 cells by alamar blue assay; format: functional, cell-based
Plasmodium falciparum [6] = experiment: Antimalarial activity against chloroquine-resistant Plasmodium falciparum W2; format: functional, organism-based
Cryptococcus neoformans = experiment: Antifungal activity against Cryptococcus neoformans; format: functional, organism-based
Staphylococcus aureus [7] = experiment: Antibacterial activity against methicillin-resistant Staphylococcus aureus; format: functional, organism-based
Aspergillus fumigatus = experiment: Antifungal activity against Aspergillus fumigatus; format: functional, organism-based
Plasmodium berghei [8] = experiment: Antimalarial activity as increased survival against Plasmodium berghei ANKA infected Swiss albino mice (Mus musculus) at 100 uM/kg intraperitoneal dose; format: functional, organism-based
Staphylococcus aureus [9] = experiment: Antibacterial activity against Staphylococcus aureus; format: functional, organism-based
[10] = test system: Human immunodeficiency virus; experiment: Antiviral activity against Human immunodeficiency virus; format: functional, organism-based; settings: Human immunodeficiency virus 1
Pseudomonas aeruginosa = experiment: Antibacterial activity against Pseudomonas aeruginosa; format: functional, organism-based
[11] = test system: Mycobacterium tuberculosis; experiment: Antitubercular activity against Mycobacterium tuberculosis; format: functional

Cc1cc2c(cc1Br)[C@]1(C)CC[C@](C)(CO2)[C@@H]1C
Activity (THP-1): inactive

C[C@@H]1CC[C@H]2[C@@H](C)C(=O)O[C@@H]3O[C@@]4(C)CC[C@@H]1[C@]32OO4 [ARTEMISININ]
Activity (Plasmodium berghei [1]): 35.9% | IC50 (Plasmodium falciparum [2]): 0.012 µg/mL (≈ 0.0425 µM)

O=C1C(O)=C([C@H]2CC[C@H](c3ccc(Cl)cc3)CC2)C(=O)c2ccccc21 [ATOVAQUONE]
inhibition at 1 µM (Toxoplasma gondii): 100%

CCN(CC)CCCC(C)Nc1ccnc2cc(Cl)ccc12 (stereo not given) [CHLOROQUINE]
Activity (Plasmodium berghei [1]): 0.1%

Nc1ccn([C@@H]2CS[C@H](CO)O2)c(=O)n1 [LAMIVUDINE]
EC50 (Hepatitis B virus): 0.062 µg/mL (≈ 0.27 µM)

CC/C=C/C(CC)CCC[C@@]1(CC)C[C@H](CC)[C@H](CC(=O)OC)OO1 (stereo not given in full) [PLAKORTIDE F]
inhibition at 6.25 µg/mL [3]: 29% | IC50 (A549): 2.5 µg/mL (≈ 7.05 µM) | inhibition at 1 µM (Toxoplasma gondii): 67% | IC50 (Plasmodium berghei [4]): Not Active | Activity (Candida albicans): inactive | IC50 (SK-MEL-28): 2.5 µg/mL (≈ 7.05 µM) | IC50 (P388): 1.25 µg/mL (≈ 3.53 µM) | Activity [5]: inactive | IC50 (HT-29): 1.25 µg/mL (≈ 3.53 µM) | IC50 (Plasmodium falciparum [6]): 0.39 µg/mL (≈ 1.1 µM) | Activity (Cryptococcus neoformans): inactive | Activity (Staphylococcus aureus [7]): inactive | Activity (Aspergillus fumigatus): inactive | EC50 (Hepatitis B virus): > 100 µg/mL | Activity (Plasmodium berghei [8]): inactive | Activity (Plasmodium berghei [1]): inactive | Activity (Staphylococcus aureus [9]): inactive | IC50 (Plasmodium falciparum [2]): 0.48 µg/mL (≈ 1.35 µM) | EC50 [10]: 13 µM | Activity (Pseudomonas aeruginosa): inactive

CC/C=C/[C@H](CC)CCC[C@@]1(CC)C=C(CC)C(=O)O1 [PLAKORTONE G]
inhibition at 6.25 µg/mL [3]: 4% | IC50 (A549): > 1 µg/mL | Activity (Candida albicans): inactive | IC50 (SK-MEL-28): > 10 µg/mL | Activity [5]: inactive | IC50 (HT-29): > 1 µg/mL | IC50 (Plasmodium falciparum [6]): > 4.76 µg/mL | Activity (Cryptococcus neoformans): inactive | Activity (Staphylococcus aureus [7]): inactive | Activity (Aspergillus fumigatus): inactive | EC50 (Hepatitis B virus): > 100 µg/mL | Activity (Staphylococcus aureus [9]): inactive | IC50 (Plasmodium falciparum [2]): 4.2 µg/mL (≈ 15.1 µM) | Activity (Pseudomonas aeruginosa): inactive

CO[C@H]1/C=C/O[C@@]2(C)Oc3c(C)c(O)c4c(O)c(c(/C=N/N5CCN(C)CC5)c(O)c4c3C2=O)NC(=O)/C(C)=C\C=C\[C@H](C)[C@H](O)[C@@H](C)[C@@H](O)[C@@H](C)[C@H](OC(C)=O)[C@@H]1C [RIFAMPIN]
MIC [11]: 0.25 µg/mL (≈ 0.304 µM)

CC/C(=C(\c1ccccc1)c1ccc(OCCN(C)C)cc1)c1ccccc1 [TAMOXIFEN]
IC50 (A549): 1.86 µg/mL (≈ 5.01 µM) | IC50 (SK-MEL-28): 1.86 µg/mL (≈ 5.01 µM) | IC50 (HT-29): 1.86 µg/mL (≈ 5.01 µM)

Cc1cn([C@H]2C[C@H](N=[N+]=[N-])[C@@H](CO)O2)c(=O)[nH]c1=O [ZIDOVUDINE]
EC50 [10]: 0.004 µM
